Measurements: PMC10374108, “Structural and biochemical characterization of the key components of an auxin degradation operon from the rhizosphere bacterium Variovorax” (PLOS Biology, 2023)
“And” between values parts separate entries of the source, which are not always exact repeats. Identical values can stand only once. Like-named read-outs stand apart in the source and are kept apart here.

Experiments:
IadK2 = IadK2 (Variovorax paradoxus, UniProt T1X8R6); assay: ITC, auxins binding to IadK2
Description: (§1) ITC experiments were performed using a MicroCal PEAQ-ITC system (Malvern). All the experiments were performed at […] in a buffer containing 25 mM Tris-HCl (pH 7.5) and 150 mM NaCl (unless otherwise stated). […] Data was analyzed using the MicroCal PEAQ-ITC analysis software. All the measurements were repeated at least 2 times.

[1] = test system: IadD/E-IadC dioxygenase system; assay: In vitro IAA and analogs transformation assay, IadC + IadD/E; format: biochemical, Variovorax paradoxus CL14; conditions: normalised, replicates
Description: The reaction mixture was composed of 100 mM Tris-HCl (pH7.5), 250 μM reduced NADH, 10 μM ammonium iron (II) sulfate, and 3 μM of each enzyme component. […] The mixture was vortexed periodically to introduce oxygen for the reaction and was boiled to stop the reaction. After pelleting the precipitants, the supernatant was collected and mixed with 2 volumes of Salkowski reagent made of 0.5 M ferric chloride and 35% perchloric acid for the quantification of residual substrate by measuring the adsorption at 530 nm.

IadK3 = IadK3 (Variovorax paradoxus, UniProt A0A0H2LZ84); assay: ITC, auxins binding to IadK3; set-up: species or system Variovorax paradoxus CL14
Description: as §1

[2] = target: IadE (Variovorax paradoxus CL14); assay: SEC; co-expressed IadD/E complex purified by cation exchange, 20 mg/ml, HiLoad 200 column, 25 mM Tris-HCl pH 7.5, 150 mM NaCl, 2 mM DTT; peak fractions on SDS-PAGE
[3] = target: IadD (Variovorax paradoxus CL14); assay: cryo-EM structure; purified IadD/E complex with 20-fold molar excess of IAA, 2.6 Å (2.59 Å), C3 symmetry
[4] = target: IadE (Variovorax paradoxus CL14); assay: as above
[5] = ITC, single-phase isotherm, auxin analogs to IadK2, mean ± SEM, read-out: KD
[6] = IadK2, ITC, replicates, read-out: Kd

Sequence of IadK3 (A0A0H2LZ84 entry or part of it): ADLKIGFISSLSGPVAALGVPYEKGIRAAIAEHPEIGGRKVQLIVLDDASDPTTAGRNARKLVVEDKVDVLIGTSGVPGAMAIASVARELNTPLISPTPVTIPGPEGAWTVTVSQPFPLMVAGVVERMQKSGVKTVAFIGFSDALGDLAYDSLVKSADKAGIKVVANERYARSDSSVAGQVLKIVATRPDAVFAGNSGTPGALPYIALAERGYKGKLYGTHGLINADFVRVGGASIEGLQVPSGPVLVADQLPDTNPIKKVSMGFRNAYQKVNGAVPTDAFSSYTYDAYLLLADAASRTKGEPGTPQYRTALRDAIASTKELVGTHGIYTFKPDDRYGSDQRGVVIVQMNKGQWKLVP
Sequence of IadK2 (T1X8R6 entry or part of it): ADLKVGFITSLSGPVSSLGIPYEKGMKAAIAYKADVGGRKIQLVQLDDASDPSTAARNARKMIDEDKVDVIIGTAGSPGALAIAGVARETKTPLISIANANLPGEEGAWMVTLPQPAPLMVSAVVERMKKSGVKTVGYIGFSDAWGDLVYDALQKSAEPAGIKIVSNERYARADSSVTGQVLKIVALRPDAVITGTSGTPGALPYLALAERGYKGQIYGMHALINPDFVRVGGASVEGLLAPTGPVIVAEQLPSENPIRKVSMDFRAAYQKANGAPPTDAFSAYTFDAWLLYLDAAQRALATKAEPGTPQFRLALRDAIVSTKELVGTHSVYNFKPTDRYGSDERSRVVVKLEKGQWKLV

Kd (IadK2; [5]) [µM]	Kd (IadK2; [6])	relative substrate level after reaction [1]	relative substrate level before reaction [1]	Compound	also measured
–	–	–	–	O=C(O)COc1ccc(Cl)cc1Cl [2,4-D, 2,4-dichlorophenoxyacetic acid]	Kd (IadK2; ITC, single-phase isotherm, auxin analogs to IadK2, mean ± SEM): > 100 µM; Kd (IadK2; IadK2, ITC, replicates): > 100 µM
15.2 ± 6.8	7 µM and 23.8 µM and 15 µM	0.2122 and 0.2346 and 0.1886	1 and 0.9732 and 0.9831	O=C(O)Cc1c[nH]c2cccc(Cl)c12 [4-Cl-IAA, 4-chloroindole-3-acetic acid]	–
–	–	0.2661 and 0.2238 and 0.1936	1 and 1.014 and 0.9931	O=C(O)Cc1c[nH]c2ccc(O)cc12 [5-HIAA, 5-hydroxy indole-3-acetic acid]	–
18 ± 7	28 µM and 11 µM and 16 µM	1.033 and 0.9962 and 0.976	1 and 1.003 and 0.9923	O=C(O)CCCc1c[nH]c2ccccc12 [IBA, indole-3-butyric acid]	–
1.4 ± 0.2	1.6 µM and 1.2 µM and 1.5 µM	0.9755 and 1.034 and 0.9864	1 and 1.004 and 1.006	O=C(O)CCc1c[nH]c2ccccc12 [IPA, indole-3-propionic acid]	–
17 ± 2.2	15 µM and 16 µM and 20 µM	–	–	O=C(O)Cc1cccc2ccccc12 [NAA, 1-naphthylacetic acid]	–
–	–	–	–	O=C(O)Cc1ccccc1 [PAA, phenylacetic acid]	Kd (IadK3): > 100 µM; Kd (IadK3; read-out: ITC binding, IadK3, ITC, replicates): > 100 µM; binding to IadK3 (ITC) (IadK3; result in words): no binding detected; binding to IadK2 (ITC) (IadK2; result in words): no binding
–	–	–	–	O=C(O)CC1C(=O)Nc2ccccc21 (centres unmarked) [oxIAA, 2-oxindole-3-acetic acid]	association with IadK3 (IadK3; result in words, method not stated): weakly associate
–	–	–	–	IadD (enzyme)	stoichiometry N (IadD:IadE molar ratio) [2]: 1; stoichiometry N [3]: 3
–	–	–	–	IadE (enzyme)	stoichiometry N [4]: 3
